Source: US8614203B2, “Methods for the treatment of a central nervous system injury via a tapered administration protocol” (Emory University, priority 2005, dated 2013)

Test system: bilateral contusions of the medial prefrontal cortex
Test: Example 1: cell counts of Nissl-stained neurons (STR, GP, DMN, VMN) after TBI
Type: in vivo, Sprague-Dawley rats
Details: 4 mg/kg in peanut oil
Protocol: Male Sprague-Dawley rats (300 g) were housed individually in wire cages and kept on a reverse light-dark cycle (0800-2000 h). […] All procedures involving animals conformed to guidelines set forth in the Guide for the Care and Use of Laboratory Animals (U.S. Department of Health and Human Services, Pub no. 85-23, 1985) and were approved by the Emory University Institutional Animal Care and Use Committee.
Bilateral contusions of the medial prefrontal cortex were created by a pneumatic impactor device as previously described. Briefly, rats were given anesthetized with ketamine/xylazine (90 mg/kg; 10 mg/kg) and placed in a stereotaxic apparatus. A craniectomy (diameter 6 mm) was made over the midline of the prefrontal cortex with its center 1.5 mm AP to bregma. After removal of the bone, the tip of the impactor (diameter 5 mm) was moved to +3.0 mm AP; 1.0 mm ML (from bregma), and checked for adequate clearance. Trauma was produced by pneumatically activating the piston to impact −2.0 mm DV (from dura) at a velocity of 3 m/s with a brain contact time of 0.5 seconds. […]
Cell counts were done on an Olympus BH-2 microscope equipped with an eyepiece micrometer grid (sample area=40 um^2 at ×400 magnification). […] Only cells with neuronal nuclei and intact membranes were counted as neurons.
Experienced individuals who were blind to treatment conditions of the study conducted all histological and behavioral analyses. All data were tested for normality and homoschedasticity before being analyzed by parametric analysis of variance (ANOVA). MWM results were analyzed using separate mixed-factorial (4 groups×5 days) analysis of variance (ANOVA) on each of the two 5-day testing periods (acquisition and retention respectively). Results of the BSN task were analyzed using the mixed-factorial ANOVA (4 groups×2 post-injury trials). […] Pearson r coefficients were calculated to determine whether significant correlations could be detected between histological (e.g., lesion size and cellular density) and behavioral parameters (e.g., acquisition and retention of the MWM task and measures of sensory neglect).

CC(=O)[C@H]1CC[C@H]2[C@@H]3CCC4=CC(=O)CC[C@]4(C)[C@H]3CC[C@]12C [progesterone, pregn-4-ene-3,20-dione]
injury-induced neuronal loss (mean cellular density STR, GP, DMN, VMN) (3 days (LP3)): significant reduction of injury-induced neuronal loss in all brain regions examined
injury-induced neuronal loss (mean cellular density STR, GP, DMN, VMN) (5 days (LP5)): significant reduction of injury-induced neuronal loss in all brain regions examined
neuronal loss in the VMN, 5 days vs 3 days of treatment (5 days compared with 3 days): more effective than 3 days at attenuating neuronal loss in the VMN
